In patent US11845759B2, “Opioid compounds and uses thereof” (priority 2018, dated 2023):

Assays:
μ-opioid receptor [1] = biological target: T1, μ-opioid receptor (Homo sapiens (Human), UniProt P35372); assay: [35S]GTPγS μ-opioid receptor functional assay; type: biochemical; conditions: for functional profile at μ-opioid receptor (in words): conclusion from Table 23
μ-opioid receptor [2] = biological target: T1, μ-opioid receptor; type: binding
[3] = Hydrolysis in human blood serum at 37° C.; conditions: 6,14-bis-PEG-Oxycodone (86%, 14% mono-PEG) in human serum, 37° C.
[4] = Hydrolysis in simulated gastric fluid at 37° C.; conditions: 6,14-bis-PEG-Oxycodone (86%, 14% mono-PEG) in simulated gastric fluid (pH=1.2)
[5] = Hydrolysis in simulated intestinal fluid at 37° C.; conditions: for 6,14-bis-PEG-Oxy (%): 6,14-bis-PEG-Oxycodone (86%, 14% mono-PEG) in simulated Intestinal fluid (pH=6.8), 37° C.; for 6-lauroyl-Oxy (%): 6-lauroyl-Oxycodone, simulated intestinal fluid with 0.5% Polysorbate 80, 37° C.
[6] = Hydrolysis in pH buffer/EtOH solutions; type: physicochemical; conditions: 6-lauroyl-Oxycodone

In the case of `CCCCCCCCCCCC(=O)O[C@@]12CCC(=O)C3Oc4c(OC)ccc5c4[C@@]31CCN(C)[C@@H]2C5` (some centres unmarked) [14-lauroyl oxycodone], the “% Response Agonist” value (μ-opioid receptor [1]; Conc. 100 μM, criteria ≥± 50%) is reported as 56%, the “% Response Antagonist” value (μ-opioid receptor [1]; Conc. 100 μM, criteria ≥± 50%) is reported as 56% and the “functional profile at μ-opioid receptor (in words)” value (μ-opioid receptor [1]) is reported as “partial agonist and a partial antagonist”.

In the case of `COCCOCCOCC(=O)OC1=CCC2(OC(=O)COCCOCCOC)[C@H]3Cc4ccc(OC)c5c4[C@@]2(CCN3C)C1O5` (some centres unmarked) [6,14-bis-PEG oxycodone], the Ki (μ-opioid receptor [2]) is reported as 52 nM, the “Ki compared with that of oxycodone (in words)” value (“Ki compared with that” below) (μ-opioid receptor [2]) is reported as “comparable” and the EC50 (μ-opioid receptor [1]) is reported as 520 nM. For the same molecule, the “% Response Agonist” value (μ-opioid receptor [1]; Conc. 3 μM, criteria ≥± 50%) was 85%, the “functional profile at μ-opioid receptor (in words)” value (μ-opioid receptor [1]) was “μ-receptor agonist as effective as oxycodone” and the “6,14-bis-PEG-Oxy (%)” value ([3]; 0 h) was 86%. For the same molecule, the “6,14-bis-PEG-Oxy (%)” value ([3]; 0.17 h) was 0.71%, the “6,14-bis-PEG-Oxy (%)” value ([3]; 1 h) was 0% and the “6,14-bis-PEG-Oxy (%)” value ([4]; 0 h) was 86%. For the same molecule, the “6,14-bis-PEG-Oxy (%)” value ([4]; 1 h) was 77.7%, the “6,14-bis-PEG-Oxy (%)” value ([4]; 2 h) was 72.5% and the “6,14-bis-PEG-Oxy (%)” value ([4]; 4 h) was 65.6%. For the same molecule, the “6,14-bis-PEG-Oxy (%)” value ([4]; 20 h) was 30.2%, the “6,14-bis-PEG-Oxy (%)” value ([5]; 0 h) was 86% and the “6,14-bis-PEG-Oxy (%)” value ([5]; 0.17 h) was 0%.

With `CCCCCCCCCCCC(=O)OC1=CC[C@@]2(O)[C@H]3Cc4ccc(OC)c5c4[C@@]2(CCN3C)C1O5` (some centres unmarked) [6-lauroyl oxycodone] the “6-lauroyl-Oxy (%)” value ([6]; pH 9 buffer (75% EtOH), 0 h) was 99%, the “Oxy (%)” value ([6]; pH 9 buffer (75% EtOH), 0 h) was 0% and the “6-lauroyl-Oxy (%)” value ([6]; pH 9 buffer (75% EtOH), 0.5 h) was 98%. The “Oxy (%)” value ([6]; pH 9 buffer (75% EtOH), 0.5 h) was 1%, the “6-lauroyl-Oxy (%)” value ([6]; pH 9 buffer (75% EtOH), 2 h) was 98% and the “Oxy (%)” value ([6]; pH 9 buffer (75% EtOH), 2 h) was 1%. The “6-lauroyl-Oxy (%)” value ([6]; pH 9 buffer (75% EtOH), 4 h) was 98%, the “Oxy (%)” value ([6]; pH 9 buffer (75% EtOH), 4 h) was 1% and the “6-lauroyl-Oxy (%)” value ([6]; pH 9 buffer (75% EtOH), 8 h) was 98%. For the same molecule, the “Oxy (%)” value ([6]; pH 9 buffer (75% EtOH), 8 h) was 1%, the “6-lauroyl-Oxy (%)” value ([6]; pH 11 buffer (75% EtOH), 0 h) was 99% and the “Oxy (%)” value ([6]; pH 11 buffer (75% EtOH), 0 h) was 0%. For the same molecule, the “6-lauroyl-Oxy (%)” value ([6]; pH 11 buffer (75% EtOH), 0.5 h) was 24.5%, the “Oxy (%)” value ([6]; pH 11 buffer (75% EtOH), 0.5 h) was 75.5% and the “6-lauroyl-Oxy (%)” value ([6]; pH 11 buffer (75% EtOH), 4 h) was 7.2%. The “Oxy (%)” value ([6]; pH 11 buffer (75% EtOH), 4 h) was 92.8%, the “6-lauroyl-Oxy (%)” value ([6]; pH 11 buffer (75% EtOH), 8 h) was 6.2% and the “Oxy (%)” value ([6]; pH 11 buffer (75% EtOH), 8 h) was 93.8%. For the same molecule, the Ki (μ-opioid receptor [2]) was 96 nM, the “Ki compared with that” value (μ-opioid receptor [2]) was “comparable” and the EC50 (μ-opioid receptor [1]) was 990 nM. The “% Response Agonist” value (μ-opioid receptor [1]; Conc. 3 μM, criteria ≥± 50%) was 52%, the “6-lauroyl-Oxy (%)” value ([5]; 0 h) was 99% and the “6-lauroyl-Oxy (%)” value ([5]; 0.17 h) was 56.9%. The “6-lauroyl-Oxy (%)” value ([5]; 0.5 h) was 54.8%, the “6-lauroyl-Oxy (%)” value ([5]; 1 h) was 52.6% and the “6-lauroyl-Oxy (%)” value ([5]; 2 h) was 50.8%. For the same molecule, the “6-lauroyl-Oxy (%)” value ([5]; with additional fresh intestinal fluid 30 min) was 18.6%.

For `COCCOCCOCC(=O)OC1=CC[C@@]2(O)[C@H]3Cc4ccc(OC)c5c4[C@@]2(CCN3C)C1O5` (some centres unmarked) [6-PEG oxycodone], the Ki (μ-opioid receptor [2]) was 22 nM, the “Ki compared with that” value (μ-opioid receptor [2]) was “comparable” and the EC50 (μ-opioid receptor [1]) was 390 nM. For the same molecule, the “% Response Agonist” value (μ-opioid receptor [1]; Conc. 3 μM, criteria ≥± 50%) was 90%.
